The source of these data is patent US20250101011A1, “PEPTIDYL NITRILE COMPOUND AND USE THEREOF” (SHANGHAI YIDIAN PHARMACEUTICAL TECHNOLOGY DEVELOPMENT CO., …, priority 2022, published 2025).

The assay deals with DPP1 (Homo sapiens (Human), UniProt P53634). The experiment in a line: DPP1 activity inhibition test on U937 cells. It counts as cell-based. The note with it: substrate h-Gly-phe-AFC; for inhibition at 0.005 µM: U-937, 5 nM compound; for inhibition at 0.05 µM: U-937, 50 nM compound; for IC50: intracellular enzyme activity. How it is done: After incubation at 37° C. for 1 h, add h-Gly-phe-AFC (10 μL) to each well and start reaction.
Chain of DPP1 (P53634 25-463): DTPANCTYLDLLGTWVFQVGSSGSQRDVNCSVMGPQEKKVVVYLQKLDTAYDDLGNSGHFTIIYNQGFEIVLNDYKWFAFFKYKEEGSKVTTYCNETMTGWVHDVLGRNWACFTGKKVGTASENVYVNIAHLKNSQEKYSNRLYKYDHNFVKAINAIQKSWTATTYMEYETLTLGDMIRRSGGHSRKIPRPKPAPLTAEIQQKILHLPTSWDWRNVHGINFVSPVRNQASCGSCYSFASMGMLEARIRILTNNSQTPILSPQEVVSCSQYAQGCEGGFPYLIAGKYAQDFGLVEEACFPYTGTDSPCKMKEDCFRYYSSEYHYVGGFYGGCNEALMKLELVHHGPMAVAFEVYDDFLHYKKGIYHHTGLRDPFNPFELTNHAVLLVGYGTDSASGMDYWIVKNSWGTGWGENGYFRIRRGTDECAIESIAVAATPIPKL

Where only a bound is given, the exact number is not on record here.

For orientation: inhibition means the relative decrease from the control value, in per cent. A higher inhibition goes with a strong effect. Regarding `Cn1c(=O)oc2ccc(-c3ccc(C[C@@H](C#N)NC(=O)[C@@H]4CNCCCO4)cc3)cc21` [AZD7986, Brensocatib, reference compound], the inhibition at 0.005 µM lay in the range of 30 to 75% and the inhibition at 0.05 µM lay in the range of 75 to 100%.

On to `N#C[C@H](Cc1ccc(-c2ccc3nccn3c2)cc1)NC(=O)[C@@H]1CNCCCO1` [Compound D01], for which the “Average Inhibition % @5 nM” value (5 nM compound) is “− (“−”: inhibition % < 30%)”. Under “50 nM compound”, the “Average Inhibition % @50 nM” value is given as “− (“−”: inhibition % < 30%)”.

The molecule `N#C[C@H](Cc1ccc(-c2ccc3oc(=O)n(C4COC4)c3c2)cc1)NC(=O)[C@@H]1CNCCCO1` [Compound D03] displayed an inhibition at 0.005 µM of under 30% and an inhibition at 0.05 µM of 30 to 75%.

`N#C[C@H](Cc1ccc(-c2ccc3nncn3c2)cc1)NC(=O)[C@@H]1CNCCCO1` [Compound D05] yielded an inhibition at 0.005 µM of under 30% and an inhibition at 0.05 µM of under 30%.

With `N#C[C@H](Cc1ccc(-c2ccc3nnnn3c2)cc1)NC(=O)[C@@H]1CNCCCO1` [Compound D06], the inhibition at 0.005 µM is under 30% and the inhibition at 0.05 µM is under 30%.

On to `N#C[C@H](Cc1ccc(-c2ccc3c(c2)OC(F)(F)O3)cc1)NC(=O)[C@@H]1CNCCCO1` [Compound D07], for which the inhibition at 0.005 µM was under 30% and the inhibition at 0.05 µM lay in the range of 30 to 75%.

The molecule `N#C[C@H](Cc1ccc(-c2ccc3c(c2)CC(=O)C3)cc1)NC(=O)[C@@H]1CNCCCO1` [Compound D08] displayed an inhibition at 0.005 µM of under 30% and an inhibition at 0.05 µM of 30 to 75%.

The molecule `N#C[C@H](Cc1ccc(-c2ccc3c(c2)C(=O)CO3)cc1)NC(=O)[C@@H]1CNCCCO1` [Compound D10] showed an inhibition at 0.005 µM of under 30% and an inhibition at 0.05 µM of 30 to 75%.

In turn, `CN1Cc2cc(-c3ccc(C[C@@H](C#N)NC(=O)[C@@H]4CNCCCO4)cc3)sc2C1=O` [Compound D12] gave an inhibition at 0.005 µM of under 30% and an inhibition at 0.05 µM of under 30%.

`N#C[C@H](Cc1ccc(-c2cc3c(s2)CNC3=O)cc1)NC(=O)[C@@H]1CNCCCO1` [Compound D13]: the inhibition at 0.005 µM is under 30% and the inhibition at 0.05 µM is under 30%.

For `CN1Cc2sc(-c3ccc(C[C@@H](C#N)NC(=O)[C@@H]4CNCCCO4)cc3)cc2C1=O` [Compound D14], the inhibition at 0.005 µM was under 30% and the inhibition at 0.05 µM lay within 30 to 75%.

Take `CN1CCN(S(=O)(=O)c2ccc(-c3ccc(C[C@@H](C#N)NC(=O)[C@@H]4CNCCCO4)cc3)cc2)CC1` [Compound D16]: the inhibition at 0.005 µM was under 30% and the inhibition at 0.05 µM was in the range of 30 to 75%.

`Cn1c(=O)oc2cc(-c3ccc(C[C@@H](C#N)NC(=O)[C@@H]4CNCCCO4)cc3)ccc21` [Compound D17]: the inhibition at 0.005 µM is under 30% and the inhibition at 0.05 µM fell in the range of 30 to 75%.

`CN1CCc2nc(-c3ccc(C[C@@H](C#N)NC(=O)[C@@H]4CNCCCO4)cc3)sc2C1` [Compound D18] gave an inhibition at 0.005 µM of under 30% and an inhibition at 0.05 µM of 30 to 75%.

With `N#C[C@H](Cc1ccc(-c2ccc3c(c2)C2(COC2)OC3)cc1)NC(=O)[C@@H]1CNCCCO1` [Compound D22], the inhibition at 0.005 µM fell in the range of 30 to 75% and the inhibition at 0.05 µM was 75 to 100%.

The molecule `CNS(=O)(=O)c1ccc(-c2ccc(C[C@@H](C#N)NC(=O)[C@@H]3CNCCCO3)cc2)cc1` [Compound D23] yielded an inhibition at 0.005 µM of under 30% and an inhibition at 0.05 µM of under 30%.

`CN1CC(n2c(=O)oc3ccc(-c4ccc(C[C@@H](C#N)NC(=O)[C@@H]5CNCCCO5)cc4)cc32)C1` [Compound D24] returned an inhibition at 0.005 µM of 30 to 75% and an inhibition at 0.05 µM of 75 to 100%.

As for `CN1CCC2(CC1)OC(=O)c1ccc(-c3ccc(C[C@@H](C#N)NC(=O)[C@@H]4CNCCCO4)cc3)cc12` [Compound D25], the inhibition at 0.005 µM lay within 30 to 75% and the inhibition at 0.05 µM was in the range of 75 to 100%.

The molecule `CN1CCC2(CC1)OCc1ccc(-c3ccc(C[C@@H](C#N)NC(=O)[C@@H]4CNCCCO4)cc3)cc12` [Compound D27] returned an inhibition at 0.005 µM of under 30% and an inhibition at 0.05 µM of 30 to 75%.

As for `N#C[C@H](Cc1ccc(-c2ccc3c(n2)C2(CCN(C4COC4)CC2)OC3=O)cc1)NC(=O)[C@@H]1CNCCCO1` [Compound D28], the inhibition at 0.005 µM was in the range of 30 to 75% and the inhibition at 0.05 µM fell in the range of 75 to 100%.

For `CN1CCC2(CC1)OC(=O)c1ccc(-c3ccc(C[C@@H](C#N)NC(=O)[C@@H]4CNCCCO4)cc3)nc12` [Compound D29], the inhibition at 0.005 µM lay within 30 to 75% and the inhibition at 0.05 µM is 75 to 100%.

Consider `N#C[C@H](Cc1ccc(-c2ccc3c(n2)C2(CCN(C4COC4)CC2)OC3)cc1)NC(=O)[C@@H]1CNCCCO1` [Compound D30], for which the inhibition at 0.005 µM was under 30% and the inhibition at 0.05 µM fell in the range of 30 to 75%.

In the case of `CN1CCC2(CC1)OCc1ccc(-c3ccc(C[C@@H](C#N)NC(=O)[C@@H]4CNCCCO4)cc3)nc12` [Compound D31], the inhibition at 0.005 µM is under 30% and the inhibition at 0.05 µM was in the range of 30 to 75%.

In the case of `C[C@H](O)Cn1c(=O)oc2ccc(-c3ccc(C[C@@H](C#N)NC(=O)[C@@H]4CNCCCO4)cc3)cc21` [Compound D32], the inhibition at 0.005 µM was under 30% and the inhibition at 0.05 µM lay in the range of 30 to 75%.

`CO[C@@H](C)Cn1c(=O)oc2ccc(-c3ccc(C[C@@H](C#N)NC(=O)[C@@H]4CNCCCO4)cc3)cc21` [Compound D33]: the inhibition at 0.005 µM is under 30% and the inhibition at 0.05 µM fell in the range of 30 to 75%.

`C[C@@H](O)Cn1c(=O)oc2ccc(-c3ccc(C[C@@H](C#N)NC(=O)[C@@H]4CNCCCO4)cc3)cc21` [Compound D34] returned an inhibition at 0.005 µM of under 30% and an inhibition at 0.05 µM of 30 to 75%.

Consider `CO[C@H](C)Cn1c(=O)oc2ccc(-c3ccc(C[C@@H](C#N)NC(=O)[C@@H]4CNCCCO4)cc3)cc21` [Compound D35], for which the inhibition at 0.005 µM is under 30% and the inhibition at 0.05 µM is 30 to 75%.

Regarding `CN1CCC2(C1)OCc1ccc(-c3ccc(C[C@@H](C#N)NC(=O)[C@@H]4CNCCCO4)cc3)cc12` (stereo partly shown) [Compound D36], the inhibition at 0.005 µM was under 30% and the inhibition at 0.05 µM fell in the range of 30 to 75%.

For `CN1CCC2(C1)OC(=O)c1ccc(-c3ccc(C[C@@H](C#N)NC(=O)[C@@H]4CNCCCO4)cc3)cc12` (stereo partly shown) [Compound D37], the inhibition at 0.005 µM is under 30% and the inhibition at 0.05 µM fell in the range of 30 to 75%.

On to `CN1CCC2(CC1)OC(=O)c1cnc(-c3ccc(C[C@@H](C#N)NC(=O)[C@@H]4CNCCCO4)cc3)cc12` [Compound D38], for which the inhibition at 0.005 µM was under 30% and the inhibition at 0.05 µM lay within 30 to 75%.

`CN1CCC2(CC1)OCc1cnc(-c3ccc(C[C@@H](C#N)NC(=O)[C@@H]4CNCCCO4)cc3)cc12` [Compound D39] returned an inhibition at 0.005 µM of under 30% and an inhibition at 0.05 µM of 30 to 75%.

In general, IC50 refers to the midpoint of a concentration-inhibition curve. A lower IC50 goes with higher potency. As to `CC1(C)OC(=O)c2ccc(-c3ccc(C[C@@H](C#N)NC(=O)[C@@H]4CNCCCO4)cc3)cc21` [Compound D42], the inhibition at 0.005 µM was in the range of 30 to 75%, the inhibition at 0.05 µM fell in the range of 75 to 100% and the 50% inhibitory concentration (IC50) came to 15 nM.

As to `N#C[C@H](Cc1ccc(-c2ccc3c(c2)C(=O)CC3)cc1)NC(=O)[C@@H]1CNCCCO1` [Compound D43], the inhibition at 0.005 µM is under 30% and the inhibition at 0.05 µM lay in the range of 30 to 75%.

As to `N#C[C@H](Cc1ccc(-c2ccc3c(c2)C(=O)OC3)cc1)NC(=O)[C@@H]1CNCCCO1` [Compound D45], the inhibition at 0.005 µM was under 30% and the inhibition at 0.05 µM fell in the range of 30 to 75%.

`Cn1c(=O)oc2ccc(-c3ccc(C[C@@H](C#N)NC(=O)[C@@H]4CNCC5(CC5)CO4)nc3)cc21` [Compound D47] registered an inhibition at 0.005 µM of under 30% and an inhibition at 0.05 µM of 75 to 100%.

Consider `Cn1c(=O)oc2ccc(-c3ccc(C[C@@H](C#N)NC(=O)[C@@H]4CNCC5(CC5)CO4)nn3)cc21` [Compound D48], for which the inhibition at 0.005 µM was 30 to 75%, the inhibition at 0.05 µM fell in the range of 75 to 100% and the IC50 worked out at 12 nM.

For the molecule `Cn1c(=O)oc2ccc(-c3ccc(C[C@@H](C#N)NC(=O)[C@@H]4CNCc5ccccc5O4)cc3)cc21` [Compound D49], the inhibition at 0.005 µM was under 30% and the inhibition at 0.05 µM was in the range of 30 to 75%.

Turning to `Cn1c(=O)oc2ccc(-c3ccc(C[C@@H](C#N)NC(=O)[C@@H]4CNCC(C)(C)CO4)cc3)cc21` [Compound D50], the half-inhibitory concentration (IC50) was over 1000 nM.

The molecule `Cn1c(=O)oc2ccc(-c3ccc(C[C@@H](C#N)NC(=O)[C@@H]4CNCC(F)(F)CO4)cc3)cc21` [Compound D51] returned a 50% inhibitory concentration (IC50) of over 1000 nM.

`Cn1c(=O)oc2ccc(-c3ccc(C[C@@H](C#N)NC(=O)[C@@H]4COCC[C@@H]4N)cc3)cc21` [Compound D52] showed an inhibition at 0.005 µM of under 30% and an inhibition at 0.05 µM of 30 to 75%.

Consider `Cn1c(=O)oc2ccc(-c3ccc(C[C@@H](C#N)NC(=O)[C@@H]4CNCCCO4)s3)cc21` [Compound D53], for which the 50% inhibitory concentration (IC50) is 16 nM.

`Cn1c(=O)oc2ccc(-c3ccc(C[C@@H](C#N)NC(=O)[C@@H]4CNC[C@H](F)CO4)cc3)cc21` [Compound D54] gave an inhibition at 0.005 µM of 30 to 75% and an inhibition at 0.05 µM of 30 to 75%.

Molecule `Cn1c(=O)oc2ccc(-c3ccc(C[C@@H](C#N)NC(=O)[C@@H]4CNC[C@@H](F)CO4)c(F)c3)cc21` [Compound D55] displayed an IC50 of 6.4 nM.

In turn, `N#C[C@H](Cc1ccc(-c2ccc3c(c2)C2(CN(C4COC4)C2)OC3=O)cc1F)NC(=O)[C@@H]1CNCCCO1` [Compound D56] had an inhibition at 0.005 µM of under 30% and an inhibition at 0.05 µM of 30 to 75%.

Consider `Cn1cnc(-n2c(=O)oc3ccc(-c4ccc(C[C@@H](C#N)NC(=O)[C@@H]5CNCCCO5)c(F)c4)cc32)c1` [Compound D62], for which the inhibition at 0.005 µM was under 30% and the inhibition at 0.05 µM was 30 to 75%.

Molecule `Cn1cnc(-n2c(=O)oc3ccc(-c4ccc(C[C@@H](C#N)NC(=O)[C@@H]5CNCCCO5)c(F)c4)cc32)n1` [Compound D64] gave an inhibition at 0.005 µM of under 30% and an inhibition at 0.05 µM of under 30%.

Turning to `CO/N=C1\CCc2cc(-c3ccc(C[C@@H](C#N)NC(=O)[C@@H]4CNCCCO4)c(F)c3)ccc21` [Compound D65], the inhibition at 0.05 µM lay within 30 to 75%.
